Reference: ChEMBL document CHEMBL1201862, “PubChem BioAssay data set” (2004)
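Grown in 96-well plates, cells were treated for 48 hours with each compound at five concentrations. Insufficient inhibition: endpoint recorded as highest concentration tested. Abbreviation: GI50, concentration required for 50% inhibition of growth.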 The source made the active and inactive calls. Rule as the data show it: active = GI50 up to about 1.1 µM and inactive = higher.

Experiments:
Assay in all cases: inhibition of tumour cell growth, NCI panel, 48 h
HL-60 = test system: HL-60
LOX IMVI = test system: LOX IMVI
SF-268 = test system: SF-268
HOP-62 = test system: HOP-62
KM12 = test system: KM12
A549 = test system: A549
CAKI-1 = test system: CAKI-1
SNB-75 = test system: SNB-75
HT-29 = test system: HT-29
Malme-3M = test system: Malme-3M
COLO 205 = test system: COLO 205
A498 = test system: A498
M19-MEL = test system: M19-MEL
SN12C = test system: SN12C
UACC-257 = test system: UACC-257

Measured: GI50

CNC(=O)CN(CC(N)=O)C(N)=O
inactive: HL-60 > 100 µM | LOX IMVI > 100 µM | SF-268 > 100 µM | HOP-62 > 100 µM | KM12 > 100 µM | A549 > 100 µM | CAKI-1 > 100 µM | SNB-75 77.3 µM | HT-29 > 100 µM | Malme-3M > 100 µM | COLO 205 > 100 µM | A498 > 100 µM | M19-MEL > 100 µM

C[C@H](O)CCC(=O)c1ccoc1
inactive: SN12C > 100 µM | UACC-257 > 100 µM | HL-60 > 100 µM | LOX IMVI > 100 µM | SF-268 > 100 µM | HOP-62 > 100 µM | KM12 > 100 µM | A549 > 100 µM | CAKI-1 > 100 µM | SNB-75 > 34.5 µM | HT-29 > 100 µM | Malme-3M > 100 µM | COLO 205 > 100 µM | A498 > 100 µM | M19-MEL > 100 µM

CN(C)CCCN1CCc2c([nH]c3ccccc23)C1c1cccnc1 (centres undefined)
inactive: SN12C > 100 µM | UACC-257 > 100 µM | HL-60 > 100 µM | LOX IMVI > 100 µM | HOP-62 > 100 µM | KM12 > 100 µM | A549 > 100 µM | CAKI-1 > 100 µM | SNB-75 > 100 µM | HT-29 > 100 µM | Malme-3M > 100 µM | COLO 205 > 100 µM | A498 > 100 µM | M19-MEL > 100 µM

NS(=O)(=O)c1ccccc1C(=O)N/N=C(\c1nc2ccc([N+](=O)[O-])cc2[nH]c1=O)C(O)c1ccc([N+](=O)[O-])cc1 (centres undefined)
inactive: SN12C > 100 µM | UACC-257 > 100 µM | HL-60 > 100 µM | LOX IMVI 84.1 µM | SF-268 > 100 µM | KM12 66.2 µM | A549 > 100 µM | CAKI-1 > 100 µM | SNB-75 > 100 µM | HT-29 > 100 µM | Malme-3M > 100 µM | COLO 205 > 100 µM | A498 > 100 µM | M19-MEL > 100 µM

COc1ccccc1NC(=O)CC(=O)n1nc(C)c(/N=N/c2ccccc2C(=O)O)c1C
inactive: SN12C > 100 µM | UACC-257 > 100 µM | HL-60 > 100 µM | LOX IMVI > 100 µM | SF-268 > 100 µM | HOP-62 85.9 µM | KM12 > 100 µM | A549 > 100 µM | CAKI-1 47.1 µM | SNB-75 32.1 µM | HT-29 > 100 µM | Malme-3M > 100 µM | COLO 205 > 100 µM | A498 90.4 µM | M19-MEL > 100 µM

Cc1ccc(/C=N/NS(=O)(=O)c2ccccc2)cc1C
inactive: SN12C > 100 µM | UACC-257 > 100 µM | HL-60 > 100 µM | LOX IMVI 88.1 µM | SF-268 > 100 µM | HOP-62 > 100 µM | KM12 > 100 µM | A549 > 100 µM | CAKI-1 68.7 µM | SNB-75 > 100 µM | HT-29 > 100 µM | Malme-3M > 100 µM | COLO 205 > 100 µM | A498 59.4 µM | M19-MEL > 100 µM

O=C(CC1(O)C(=O)Nc2ccccc21)c1ccc(Cl)cc1Cl (centres undefined)
inactive: SN12C > 100 µM | UACC-257 > 100 µM | HL-60 > 100 µM | LOX IMVI > 100 µM | SF-268 > 100 µM | A549 > 100 µM | CAKI-1 > 100 µM | SNB-75 > 100 µM | HT-29 > 100 µM | Malme-3M > 100 µM | COLO 205 > 100 µM | A498 > 100 µM | M19-MEL > 100 µM

CCOc1ccc(NC(=O)C2=C(C)NC(C)=C(C(=O)Nc3ccc(OCC)cc3)C2c2ccc([N+](=O)[O-])cc2)cc1
inactive: SN12C 42.9 µM | UACC-257 39.2 µM | HL-60 18.3 µM | LOX IMVI 42 µM | SF-268 27.4 µM | HOP-62 36.1 µM | KM12 29.9 µM | A549 17.9 µM | CAKI-1 30 µM | SNB-75 29.4 µM | HT-29 33.9 µM | Malme-3M 24.4 µM | COLO 205 17.8 µM | A498 6.32 µM | M19-MEL 26.2 µM

O=C(Nc1ccccc1-c1nn(C(=S)Nc2ccccc2)c(=S)n(C(=S)Nc2ccccc2)c1=O)C(F)(F)F
inactive: SN12C 26.4 µM | UACC-257 14.2 µM | HL-60 20.9 µM | LOX IMVI 19.8 µM | SF-268 26.5 µM | HOP-62 29.3 µM | KM12 17.3 µM | A549 24.4 µM | CAKI-1 31.4 µM | SNB-75 31.1 µM | HT-29 27.7 µM | Malme-3M 30.5 µM | COLO 205 17.5 µM | A498 22.1 µM | M19-MEL 28.2 µM

O=c1[nH]c(=O)n(C2OC(CO)C(O)C2O)cc1OCC(F)(F)F (centres undefined)
inactive: SN12C > 100 µM | UACC-257 > 100 µM | HL-60 > 100 µM | LOX IMVI > 100 µM | SF-268 > 100 µM | HOP-62 > 100 µM | KM12 > 100 µM | A549 > 100 µM | CAKI-1 > 100 µM | SNB-75 > 100 µM | HT-29 > 100 µM | Malme-3M > 100 µM | COLO 205 > 100 µM | A498 > 100 µM | M19-MEL > 100 µM
